Six compounds from publication PMC8605023 (Nature Communications, 2021) can be followed below.

Molecules are shown by their SMILES. Peptide text beside a SMILES is read from it.

The target of one assay is T1, NTF2 domain of G3BP2 (Homo sapiens, UniProt Q9UN86).
T1 construct: made in house; host or cells: E. coli BL21-Gold(DE3)
T1 sequence (Q9UN86 11-133 limits assumed): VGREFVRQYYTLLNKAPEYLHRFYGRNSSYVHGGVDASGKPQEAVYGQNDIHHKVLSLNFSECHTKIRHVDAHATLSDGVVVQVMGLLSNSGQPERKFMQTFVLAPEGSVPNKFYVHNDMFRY
As to the kind of experiment: biochemical. The assay is classed as binding.

The target of the next assay is T2, NTF2 domain of G3BP1 (Homo sapiens, UniProt Q13283).
T2 construct: made in house; host or cells: E. coli BL21-Gold(DE3)
As to the kind of experiment: biochemical. It is filed as binding.

T2 sequence (Q13283 11-133 limits assumed): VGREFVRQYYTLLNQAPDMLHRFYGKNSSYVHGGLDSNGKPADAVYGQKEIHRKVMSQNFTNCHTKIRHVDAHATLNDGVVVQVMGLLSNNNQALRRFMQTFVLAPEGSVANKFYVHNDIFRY

The term Kd denotes the free concentration of one partner at which half of the binding sites on the other are occupied at equilibrium, for simple one-to-one binding. The low end stands for a tighter complex, the high end for a looser complex. A word on the IC50: it is the midpoint of a concentration-inhibition curve. Read a low IC50 as greater potency. On NTF2 domain of G3BP2, `CC[C@H](C)[C@H](NC(=O)[C@H](Cc1ccccc1)NC(=O)[C@H](CC(N)=O)NC(=O)[C@H](Cc1ccc(O)cc1)NC(=O)[C@@H]1CCCN1C(=O)CNC(=O)[C@H](CCC(N)=O)NC(=O)[C@H](CCSC)NC(=O)[C@H](CCC(N)=O)NC(=O)[C@H](C)NC(C)=O)C(=O)N[C@@H](CCC(N)=O)C(=O)N[C@@H](CC(=O)O)C(=O)N[C@@H](CO)C(=O)N[C@@H](CCSC)C(=O)N[C@@H](CC(C)C)C(=O)N[C@@H](CC(=O)O)C(N)=O` [CAPRIN1 364-379 Human] (Ac-AQMQGPYNFIQDSMLD-NH2) had an equilibrium dissociation constant (Kd) of 174 µM. On NTF2 domain of G3BP1, half-maximal inhibition (IC50) required 46 µM.
The Ki is the dissociation constant of the complex between target and ligand, obtained from inhibition or displacement. A high value points to a looser hold on the target. The compound `CC(=O)N[C@@H](CCC(=O)O)C(=O)N[C@@H](CO)C(=O)N[C@@H](CC(C)C)C(=O)N1CCC[C@H]1C(=O)N[C@@H](Cc1ccccc1)C(=O)N[C@@H](CO)C(=O)N[C@@H](Cc1ccccc1)C(=O)NCC(=O)N[C@H](C(=O)N[C@@H](CC(C)C)C(=O)N[C@@H](CO)C(=O)N[C@@H](CO)C(=O)N[C@@H](Cc1c[nH]c2ccccc12)C(=O)N[C@@H](CCC(=O)O)C(=O)N[C@@H](CC(C)C)C(=O)N[C@@H](CCC(=O)O)C(=O)O)[C@@H](C)O` [DDIT3 4-19 Human] (Ac-ESLPFSFGTLSSWELE-OH) gave a Kd on NTF2 domain of G3BP2 of 14 µM. On NTF2 domain of G3BP1, this compound returned an IC50 of 44 µM and a Ki of 14 µM.
`CC(=O)N[C@@H](C)C(=O)N1CCC[C@H]1C(=O)N[C@@H](CCCNC(=N)N)C(=O)N[C@@H](C)C(=O)N[C@H](C(=O)N[C@H](C(=O)N[C@@H](Cc1ccccc1)C(=O)NCC(=O)N[C@@H](CC(=O)O)C(=O)N[C@@H](CC(N)=O)C(=O)N[C@@H](CC(N)=O)C(=O)N[C@@H](CC(=O)O)C(=O)N[C@@H](CC(N)=O)C(=O)N[C@@H](CC(N)=O)C(=O)N[C@H](C(=O)N[C@@H](Cc1ccc(O)cc1)C(N)=O)[C@@H](C)O)[C@@H](C)O)C(C)C` [N 6-20 Mers1] (Ac-APRAVTFGDNNDNNTY-NH2): at NTF2 domain of G3BP2, the Kd turned out to be 26 µM and the Ki turned out to be 26 µM. Moreover, on NTF2 domain of G3BP1, binding was put at a Kd of 51 ± 2 µM and the affinity, expressed as Ki, was 51 µM.
The compound `CC[C@H](C)[C@H](NC(=O)[C@H](CCCNC(=N)N)NC(=O)[C@@H]1CCCN1C(=O)[C@H](C)NC(C)=O)C(=O)N[C@H](C(=O)N[C@@H](Cc1ccccc1)C(=O)NCC(=O)NCC(=O)N1CCC[C@H]1C(=O)N[C@H](C(=O)N[C@@H](CC(=O)O)C(=O)N[C@@H](CO)C(=O)N[C@H](C(=O)N[C@@H](CC(=O)O)C(=O)N[C@@H](CC(N)=O)C(=O)N[C@@H](Cc1ccc(O)cc1)C(N)=O)[C@@H](C)O)[C@@H](C)O)[C@@H](C)O` [N 13-27 Sars-CoV] (Ac-APRITFGGPTDSTDNY-NH2) gave an IC50 at NTF2 domain of G3BP1 of 10 µM.
As to `CC(=O)N[C@@H](CCC(N)=O)C(=O)NCC(=O)N[C@@H](CCCCN)C(=O)N1CCC[C@H]1C(=O)N[C@@H](CC(C)C)C(=O)N[C@@H](CCC(=O)O)C(=O)N[C@@H](Cc1ccccc1)C(=O)NCC(=O)N[C@@H](C)C(=O)N[C@H](C(=O)N[C@@H](CO)C(=O)N[C@@H](C)C(=O)N[C@@H](C)C(=O)N[C@@H](CC(C)C)C(=O)N[C@@H](CCC(N)=O)C(=O)N[C@@H](Cc1ccc(O)cc1)C(N)=O)[C@@H](C)O` [NSP3 956-971 Sars-CoV2], on NTF2 domain of G3BP2, the Kd is 35 ± 13 µM and the Ki turned out to be 35 µM.
At NTF2 domain of G3BP2, `CC[C@H](C)[C@H](NC(=O)CNC(=O)[C@H](CO)NC(=O)[C@H](C)NC(=O)[C@H](CC(C)C)NC(=O)[C@H](C)NC(=O)[C@H](CC(=O)O)NC(C)=O)C(=O)N[C@H](C(=O)N[C@@H](Cc1ccccc1)C(=O)NCC(=O)N[C@@H](CC(=O)O)C(=O)N[C@@H](Cc1ccccc1)C(=O)N[C@@H](CC(=O)O)C(=O)N[C@@H](CC(=O)O)C(=O)N[C@@H](Cc1ccc(O)cc1)C(N)=O)[C@@H](C)O` [NSP3 1796-1809 SFV] registered an IC50 of 11 µM.
